Results from US20040014671A1, “Preventives or remedies for heart failure” (priority 2000, published 2004).
Where a SMILES comes first, the peptide text is derived from it. [ ]: non-standard residue; d: D form. dTrp(2-Me) = Cc1[nH]c2ccccc2c1C[C@@H](N)C(=O)O

Tested on: papillary muscle of guinea-pig
Assay: Myocardial contractility (developed tension) in isolated papillary muscle of guinea-pig
Conditions: for change in developed tension: isolated papillary muscle, 1 Hz stimulation; for tension development (positive inotropic action) vs baseline: applied cumulatively 10, 30 and 100 μM, n=5, FIG. 1
Protocol: The direct effect of pralmorelin on myocardial contractility was evaluated using the isolated cardiac muscle of guinea-pigs according to the standard method for evaluating myocardial contractility.
Male Hartley guinea-pigs (body weight, 301-350 g; Japan SLC) were purchased. The animals were accommodated to an environment at a temperature of 23±2° C. and a humidity of 55±15% under 12-hr light/dark cycles while they were allowed to eat and drink water ad libitum until they weighed 360-480 g. Each test substance was tested on a group of five animals.
The test substances were pralmorelin dihydrochloride (KP-102), representatives of growth hormone secretagogues such as hexarelin, ghrelin and ibutamorelin methanesulfonate (the last being hereunder referred to as MK-0677) (which were prepared by the method described in JP 6-263737 A (kokai)), as well as a recombinant human growth hormone (Sumitomo Pharmaceutical) and amrinone (Sigma) which is a known therapeutic of acute heart failure. KP-102, hexarelin and MK-0677 were dissolved in distilled water. Ghrelin was dissolved in physiological saline. Amrinone was first dissolved in dimethyl sulfoxide and then diluted with physiological saline. The growth hormone was dissolved in a dedicated solubilizer (0.3 w/v % metacresol and 3.9 w/v % D-mannitol). None of the test substance solutions should be added in an amount exceeding 1 w/v %. All reagents other than the test substances were guaranteed products of Nacalai Tesque.
The guinea-pigs were stunned with a blow to the back of their head; thereafter, the carotid artery was incised and the animals were exsanguinated to death. The chest was opened, the blood vessels in the upper part of the heart were cut and the heart was removed. The heart was immediately transferred into a Krebs-Henseleit (K-H) nutrient solution (NaCl, 118.0 mM; KCl, 4.7 mM; CaCl2. 2H2O, 1.0 mM; KH2PO4, 1.2 mM; MgSO4.7H2O, 1.2 mM; NaHCO3, 25.0 mM; glucose, 11.0 mM) that had been fully aerated with 95% O2-5% CO2. The heart was fixed on a rubber-lined Petri dish with needles such that its front face was seen. The ventricular wall of the upper right ventricle (toward the atrium) was excised transversely along the atrium, then excised longitudinally along the interventricular septum so that the ventricular wall was opened to expose the right ventricular papillary muscle. Subsequently, the entire surface of the left ventricle was cut open from the aorta (down) to the apex and the anterior wall of the left ventricle was opened wide, to both right and left, and fixed to expose the papillary muscle of the left ventricle. The tricupsid or mitral valve was cut off from the ventricle and the papillary muscle was cut off at the base to prepare a specimen of papillary muscle. The base of the specimen was fixed to field stimulating electrodes in an organ bath filled with 15 mL of the nutrient solution. The tendinous cord adhering to the valve was tied up with a thread and connected to an FD pickup (TB-612T, Nihon Kohden). A resting tension of 0.5 g was loaded and the papillary muscle was driven with an electric stimulator (SEN-3201, Nihon Kohden) at a frequency of 1 Hz by pulses of 20-ms duration and at a voltage intensity about 1.2 times the threshold. After an equilibration period of about 1 hr, KP-102, hexarelin and amrinone were each applied cumulatively up to amounts of 10, 30 and 100 μM. After examination of the changes in inotropic action due to the application of the test substances, 12.5 mM of CaCl2 was added and the maximum tension that was developed by each specimen was obtained. The developed tension was recorded with a multi-purpose preamplifier (RMP-6008, Nihon Kohden) and a recorder (WT-647G, Nihon Kohden).
Each result was expressed by mean ± standard error. […]

## ghrelin
1 μM
  change in developed tension: no changes in the developed tension

## recombinant human growth hormone: recombinant human growth hormone (Sumitomo Pharmaceutical)
0.2 IU/mL
  change in developed tension: no changes in the developed tension

## CC(C)(N)C(=O)N[C@H](COCc1ccccc1)C(=O)N1CCC2(CC1)CN(S(C)(=O)=O)c1ccccc12 [MK-0677, ibutamorelin methanesulfonate]
100 μM
  change in developed tension: no changes in the developed tension

## Nc1cc(-c2ccncc2)c[nH]c1=O [amrinone]
  tension development (positive inotropic action) vs baseline: increased in a concentration-dependent manner

## Cc1[nH]c2ccccc2c1C[C@@H](NC(=O)[C@@H](N)Cc1cnc[nH]1)C(=O)N[C@@H](C)C(=O)N[C@@H](Cc1c[nH]c2ccccc12)C(=O)N[C@H](Cc1ccccc1)C(=O)N[C@@H](CCCCN)C(N)=O [hexarelin] (H-H[dTrp(2-Me)]AW[dF]K-NH2)
  tension development (positive inotropic action) vs baseline: very weak and by no means significant over the baseline value
